Values of other authors, collected in US8791127B2, “Mucosal bioadhesive slow release carrier for delivering active principles” (BioAlliance Pharma, priority 2006, dated 2014).
Converted amounts (≈) assume the structure as drawn.

Test system: HSV-1 virus
Settings: towards HSV-1 virus

For `Nc1nc2c(ncn2COCCO)c(=O)[nH]1` [acyclovir], the “minimal inhibitory concentration (MIC)” value is listed as 0.0225 µg/mL (≈ 0.0999 µM).
